Source: article PMC12444472, “BCI inhibits MKP3 by targeting the kinase-binding domain and disrupting ERK2 interaction” (The Journal of Biological Chemistry, 2025)

How the values were obtained:
MKP2^KBD = target: T1, MKP2^KBD (Homo sapiens, UniProt Q13115); assay: NMR titration (1H-15N HSQC); format: binding; settings: molar ratio to BCI 1:13
T1 construct: MKP2(5–159) (MKP2^KBD); made in house; host or cells: Escherichia coli BL21(DE3)
T1 sequence (Q13115 5-159): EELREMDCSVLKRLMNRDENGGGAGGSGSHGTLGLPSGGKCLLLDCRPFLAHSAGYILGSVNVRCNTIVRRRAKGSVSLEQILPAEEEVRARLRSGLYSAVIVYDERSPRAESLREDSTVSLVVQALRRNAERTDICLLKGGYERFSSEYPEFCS
Description: NMR data were collected at 298 K on a Bruker AVANCE NEO 800 MHz spectrometer (Bruker BioSpin) equipped with a ^1H&^19F/^13C/^15N TCI cryogenic probe. Backbone resonances of MKP3^1–154 were assigned using 2D/3D experiments, including 2D ^1H–^15N HSQC and 3D ^1H/^13C/^15N CBCA(CO)NH, HNCACB, HNCO, and HN(CA)CO, performed with uniformly ^13C/^15N labeled protein at a final concentration of 0.39 mM in buffer containing 20 mM imidazole (pH 6.0), 100 mM NaCl, 5 mM DTT, 0.5 mM EDTA, and 5% (v/v) D2O. The buffer used for backbone resonance assignment was similar to that used for the previously reported NMR structure ([15]). NMR titration experiments were conducted using ^15N-labeled MKP3^1–154, MKP3^14–152, MKP3^204–350, MKP1^1–141, MKP2^5–159, MKPX^1–140, MKP4^1–143, and MKP5^139–287. 2D ^1H–^15N HSQC spectra of ^15N-labeled MKPs^KBD (0.1 mM) were acquired in the absence and presence of BCI (50 mM stock in DMSO-d6) in buffer containing 50 mM KH2PO4–K2HPO4 (pH 7.2), 100 mM KCl, 1 mM Tris(2-carboxyethyl)phosphine hydrochloride, 1 mM EDTA, and 5% (v/v) D2O. Control experiments, in which only the corresponding volume of DMSO-d6 was added to ^15N-labeled proteins, were performed to exclude possible effects of DMSO on the interactions. For ^15N T1 measurements, the relaxation delay times were set to 20 (×2), 100, 200 (×2), 300, 400, 600 (×2), 800, 1200, and 1600 ms. For ^15N T2 measurements, the delay times were 7.84, 15.68 (×2), 23.52, 31.36 (×2), 39.2, 47.04 (×2), 54.88, 62.72, 78.4, 94.08, and 109.76 ms. The relaxation rates R1 (1/T1) and R2 (1/T2) for each residue were determined by fitting the peak intensities from spectra acquired at the various delay times to a single-exponential decay function: I/I0 = exp(-R1,2·t), where I0 is the intensity at t = 0, and I is the intensity at a delay time t. Repeated measurements were used to estimate the uncertainties of the R1 and R2 values via Monte Carlo analysis. Heteronuclear steady-state ^1H–^15N NOE experiments were acquired in an interleaved mode, with 5 s of ^1H saturation for NOE build-up and 5 s of relaxation delay for the reference spectra. Repeated experiments were performed to estimate uncertainties, and the propagated error for each NOE value was calculated using the following equation: σNOE = NOE × ((σsat/Isat)^2+(σunsat/Iunsat)^2)^1/2, where σsat and σunsat are the SDs of the saturated and unsaturated spectra, respectively, and Isat and Iunsat are the corresponding signal intensities. NMR data were processed using TopSpin 4.1.1 (Bruker BioSpin) or NMRPipe ([54]) and analyzed with POKY ([55]).

MKP3^FL = target: T2, MKP3^FL (Homo sapiens, UniProt Q16828); assay: Phosphatase activity toward pERK2 (coupled MESG assay); format: biochemical; settings: BCI at concentration 50 times that of pERK2
T2 construct: MKP3(1–381) (MKP3^FL); made in house; host or cells: Escherichia coli BL21(DE3)
T2 sequence (Q16828 1-381): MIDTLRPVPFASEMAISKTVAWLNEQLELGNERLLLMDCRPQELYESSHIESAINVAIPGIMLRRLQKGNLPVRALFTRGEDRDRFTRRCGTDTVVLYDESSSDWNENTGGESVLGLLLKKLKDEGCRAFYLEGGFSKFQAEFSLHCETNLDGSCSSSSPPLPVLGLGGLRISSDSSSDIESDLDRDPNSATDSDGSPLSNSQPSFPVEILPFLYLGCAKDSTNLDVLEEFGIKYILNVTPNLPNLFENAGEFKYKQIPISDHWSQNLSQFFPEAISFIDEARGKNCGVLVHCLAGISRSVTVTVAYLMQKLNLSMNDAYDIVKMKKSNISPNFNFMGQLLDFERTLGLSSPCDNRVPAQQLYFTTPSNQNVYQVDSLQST
Description: The phosphatase activity of MKP3 (0.5 μM) toward pERK2 (0.5 μM) was measured using a coupled assay, in which phosphate released from the substrate was transferred to 7-methyl-6-thioguanosine (MESG) by purine nucleoside phosphorylase. Assays were performed in a reaction mixture containing 50 mM Mops (pH 7.0), 100 mM NaCl, 0.1 mM EDTA, 100 μM MESG, 4 μM purine nucleoside phosphorylase, and varying concentrations of BCI, as indicated in Figure 5. Dephosphorylation was monitored by measuring absorbance changes at 360 nm, reflecting the conversion of MESG to 7-methyl-6-thioguanine in the presence of inorganic phosphate. Phosphate quantification was performed using an extinction coefficient of 11,200 M^-1 cm^-1 at 360 nm.
Stock solutions of BCI (dissolved in DMSO) at different concentrations were prepared to maintain a constant DMSO concentration across all BCI concentrations in the phosphatase inhibition assays, thereby eliminating potential effects of varying DMSO levels on detection. Initial reaction rates were determined from the linear slope of progress curves, and the data were analyzed using nonlinear regression. Kinetic parameters (kcat and Km) were obtained by fitting the data to the Michaelis–Menten equation: v0 = kcat[E][S]/(Km + [S]). […]

[1] = target: T3, MKP3^KBD and ERK2 complex (Homo sapiens, UniProt Q16828); assay: NMR competitive binding titration of ERK2 and BCI; settings: excess BCI added to MKP3^KBD and ERK2 complex
T3 construct: spectra of ^15N-MKP3^1–154 in the presence of ERK2; made in house; host or cells: Escherichia coli BL21(DE3)
T3 sequence (Q16828 1-154): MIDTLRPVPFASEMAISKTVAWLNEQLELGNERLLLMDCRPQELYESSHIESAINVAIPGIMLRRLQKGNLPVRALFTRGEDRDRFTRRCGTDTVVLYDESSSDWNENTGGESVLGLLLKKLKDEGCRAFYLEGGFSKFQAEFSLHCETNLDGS
Description: NMR data were collected at 298 K on a Bruker AVANCE NEO 800 MHz spectrometer (Bruker BioSpin) equipped with a ^1H&^19F/^13C/^15N TCI cryogenic probe. Backbone resonances of MKP3^1–154 were assigned using 2D/3D experiments, including 2D ^1H–^15N HSQC and 3D ^1H/^13C/^15N CBCA(CO)NH, HNCACB, HNCO, and HN(CA)CO, performed with uniformly ^13C/^15N labeled protein at a final concentration of 0.39 mM in buffer containing 20 mM imidazole (pH 6.0), 100 mM NaCl, 5 mM DTT, 0.5 mM EDTA, and 5% (v/v) D2O. The buffer used for backbone resonance assignment was similar to that used for the previously reported NMR structure ([15]). […] The relaxation rates R1 (1/T1) and R2 (1/T2) for each residue were determined by fitting the peak intensities from spectra acquired at the various delay times to a single-exponential decay function: I/I0 = exp(-R1,2·t), where I0 is the intensity at t = 0, and I is the intensity at a delay time t. […] Repeated experiments were performed to estimate uncertainties, and the propagated error for each NOE value was calculated using the following equation: σNOE = NOE × ((σsat/Isat)^2+(σunsat/Iunsat)^2)^1/2, where σsat and σunsat are the SDs of the saturated and unsaturated spectra, respectively, and Isat and Iunsat are the corresponding signal intensities. NMR data were processed using TopSpin 4.1.1 (Bruker BioSpin) or NMRPipe ([54]) and analyzed with POKY ([55]).

SMILES: O=C1/C(=C/c2ccccc2)C(NC2CCCCC2)c2ccccc21 (stereo not drawn) [BCI, (E)-2-benzylidene-3-(cyclohexylamino)-2,3-dihydro-1H-inden-1-one]
- perturbation of NMR spectrum (MKP2^KBD): Peak broadening was detected
- extension of pERK2 dephosphorylation time (MKP3^FL): more than 20 fold
- effect on ERK2-bound MKP3^KBD spectrum [1]: reversion of specific MKP3^KBD peaks to their ERK2-unbound state
